In patent US6281250A, “Retinyl ethers, derivatives and analogues and inhibition of breast carcinogenesis” (Southern Research Institute, priority 1999, dated 2001):
Values joined by “and” are separate entries in the source; they are usually repeats but may differ in a detail not shown here. Equal entries are not always repeated. “Also recorded” adds a separate entry of the source. Where two headings read alike, the source gives them in different places.

Columns and labels:
[1] = test system: serum retinol-binding protein (RBP); experiment: Binding to serum retinol-binding protein (RBP): inhibition of [3H]retinol binding; details: % of that of retinol
[2] = in vivo
Protocol: Toxicological evaluations involving measurement of body weights and observations of clinical signs characteristic of retinoid toxicity were accomplished as previously described (Lin et al., 1996).
RTMBE and two of its analogues, together with RME and RPE, were selected for estimation of their toxicities to mice when administered during 28-29 days by gavage in corn oil (Table 8). Mice were evaluated for changes in body weight and for signs of clinical retinoid toxicity (hypervitaminosis A) including alopecia, scaly skin, and limping. In the first experiment, these retinyl ethers were given at equimicromolar doses at three dose levels. The retinyl benzyl ethers (RTMBE, 3c, and 3e) were then tested at higher doses in a second experiment.

[3] = test system: MNU-induced mammary tumors
Protocol: The methods employed in the preparation of diets, analyses of retinoid-dietspecimens, and dietary treatment with retinoids of MNU-induced mammary carcinogenesis in Sprague-Dawley rats were described previously (Grubbs et al., 1995; Shealy et al., 1997). Briefly, diets were prepared by mixing each retinoid with Wayne meal or Teklad (4%) mash diet. For each kg of diet, the retinoid was dissolved in 12 g ethanol, 19 g trioctanoin, 0.05 mL Tenox 20, and 0.05 mL d,1-alpha tocopherol prior to incorporation into the feed using a Patterson-Kelly blender. Retinoid diet mixtures were stored at 4° C. Portions of each retinoid-diet mixture were analyzed for the added retinoid to ensure homogeneity. Female Sprague-Dawley rats received an i.v. injection of MNU (45 mg/kg body weight) at 50 days of age. Diet supplementation with retinoids was initiated three days after MNU. A group of rats receiving retinyl acetate (1 mmol/kg of diet) served as the positive control. The animals were palpated for mammary tumors 2×/week. At termination of the study, mammary tumors were processed for histological classification. Also, five rats/group had complete necropsies performed. The tissues were examined histologically for pathological lesions as additional toxicological evaluation. Extracts of the liver and mammary gland (5 rats/group) were analyzed by HPLC for retinyl palmitate and/or for the dosed retinoid. Statistical analyses of cancer incidence and latency were determined using logrank analysis, while differences in cancer multiplicity were determined employing the Armitage test.
^b Average number of palpable mammary tumors.
^c Diet supplementation with retinoids was initiated at 52 days of age
and was continued until the study was terminated 180 days after
administration of MNU. Treatment with retinoids is stated in millimoles of
retinoid per kilogram of diet (Wayne meal).
^d Female Sprague-Dawley rats received one i.v. injection of MNU (50
mg/kg of body weight) at 50 days of age.

[4] = rat, in feed; Shealy et al., 1997; cited from earlier work
[5] = Shealy et al., 1997; cited from earlier work
[6] = cited from earlier work; for stability in refluxing ethanol: 24 hours or similar, protected from light and air, Shealy et al, 1997
[7] = test system: carcinogen-induced mammary cancer; details: cited from earlier work; for suppression of MNU-induced mammary cancer: Thompson et al., 1978 / Shealy et al.
[8] = Shealy et al., 1997, cited from earlier work; for toxicity in mammary carcinogenesis study: 2 mmol/kg of diet; for toxic dose in the feed after 90 days: Sprague-Dawley rats
[9] = molecular target: T1, cellular retinol-binding protein (CRBP) (Rattus norvegicus, UniProt P02696); experiment: Binding to cellular retinol-binding protein (CRBP): inhibition of [3H]retinol binding, sucrose density-gradient sedimentation; details: for Percent Inhibition of [3H] Retinol Binding (CRBP Assay): 150-fold molar excess of unlabelled test retinoid, rat testes cytosol
T1 construct: portions of rat testes cytosol (1 mg protein) were incubated; from tissue; host or cells: rat testes cytosol
T1 sequence (P02696 1-135): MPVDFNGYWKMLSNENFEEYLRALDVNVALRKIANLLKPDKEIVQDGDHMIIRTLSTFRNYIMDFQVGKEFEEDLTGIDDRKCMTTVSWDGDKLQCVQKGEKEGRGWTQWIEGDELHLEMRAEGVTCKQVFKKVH
Protocol: Binding affinities of the retinyl ethers for CRBP were determined by sucrose, density-gradient, sedimentation analysis as described before (Sani et al., 1980). Briefly, portions of rat testes cytosol (1 mg protein) were incubated with [^3 H]retinol (50 pmol) in the presence or absence of a 150-fold molar excess of unlabeled retinol or the test retinoids. The preparations after dialysis were analyzed by 5-20% sucrose density gradient sedimentation. For measuring the competitive binding of the unlabeled retinoids, inhibition of [^3 H]retinol binding to CRBP by unlabeled retinol is regarded as 100%. The mean and standard deviation calculated from the relative inhibitions obtained from multiple determinations were used as the relative binding affinities of the various retinyl ethers.
The group of retinyl benzyl ethers has now been evaluated for binding to CRBP. Binding to CRBP, as defined for Table I, at approximately 60% or higher was rated as strong; at 40-60%, as moderate; at 20-40%, as low.
^a Per cent inhibition of binding of tritiated retinol to CRBP by a
150-fold molar excess of the unlabelled test retinoid (Sani et al., 1980,

[10] = test system: TPA-induced ornithine decarboxylase (ODC); experiment: Inhibition of TPA-induced ornithine decarboxylase (ODC) in mouse skin; format: in vivo
Text: (§1) Earlier, several alkyl, alkenyl, or alkynyl retinyl ethers had been assayed for inhibition of TPA-induced ornithine decarboxylase (ODC) in mouse skin and for the suppression of DMBA-initiated and TPA-promoted mouse-skin papillomas (Shealy et al., 1997). In comparison with control groups, these retinyl ethers were ineffective. Only a few representatives of the benzyl ethers were selected for tests in these assays. […] Because of these and the earlier results (Shealy et al., 1997), testing of retinyl benzyl ethers in the ODC and papilloma assays was discontinued.

[11] = test system: mouse-skin papillomas; experiment: Suppression of DMBA-initiated and TPA-promoted mouse-skin papillomas; format: in vivo; details: mouse-skin papilloma assay
Text: as §1

[12] = test system: MNU-induced mammary cancer; experiment: Short-term (90-day) assay against MNU-induced mammary cancer in rats (Expts. 2 and 3); format: in vivo, rat (female Sprague-Dawley)
Protocol: Retinoid diet mixtures were stored at 4° C. […] The animals were palpated for mammary tumors 2×/week. […] Also, five rats/group had complete necropsies performed.
The 2,5-dimethoxybenzyl (3b) and 4-methoxybenzyl (3e) ethers were tested in the same way in a 90-day study. […] The 2,5-dimethybenzyl (3c) and the 2,3-dimethoxybenzyl (3h) ethers, together with RTMBE for comparison, were likewise assayed according to the same methodology. Prior to the beginning of this study, specimens of the retinoid-diet mixtures were placed under the conditions that were employed during the storage and feeding of RTMBE, 3c, and 3h. The specimens were extracted with butanol, and the extracts were analyzed by HPLC. […] Testing of 3c and 3h was discontinued, but the RTMBE study was continued until the duration of the study was 180 days (Table 6). The results were similar to those of Experiment 1 (Table 3). The averages of the number of tumors per rat were reduced by 32-35%; in addition, the averages of the tumor weights per rat was 56-70% lower than the average tumor burden of the control group.
and was continued until the studies of 3b, 3c, 3e, and 3h were terminated
90 days after administration of MNU. The RTMBE experiment was continued
until 180 days after MNU administration (Table VI).
kilogram of Teklad diet.

[13] = Stability of retinyl ethers in storage and in solution; format: physicochemical; details: weakly acidic ethanol solution
[14] = Mammary tissue-to-plasma concentration after intravenous dosing; format: in vivo, rat (female Sprague-Dawley); details: rat, 5 mg/kg i.v., after 24 hr, read-out: ratio of mammary tissue-to-plasma concentrations
[15] = molecular target: T1, cellular retinol-binding protein (CRBP); details: Sani, 1993; Sani et al., 1996; Shealy et al., 1997; cited from earlier work
[16] = test system: serum retinol-binding protein (RBP); details: 150-fold molar excess; Sani et al., 1996; cited from earlier work
[17] = test system: NADPH-requiring enzymes in rat liver microsomes; details: literature; cited from earlier work
[18] = oral gavage in corn oil, 28-29 days
[19] = Expt. 2, 0.5 mmol/kg diet, 90 days
[20] = Expt. 2, 1 mmol/kg diet, 90 days
[21] = Expt. 2, 2 mmol/kg diet, 90 days

SMILES: C#CCOC/C=C(C)/C=C/C=C(C)/C=C/C1=C(C)CCCC1(C)C [RPE, retinyl propynyl ether]
- inhibition of [3H] retinol-binding (RBP), relative to that of retinol [1]: 70%
- NOAEL ([2]; mouse, in vivo, po): 43 mg/kg/day
- Toxic Dose [2, 18]: > 43 mg/kg day
- reduction of average number of tumors per rat ([3]; after 90 days, 2 mmol/kg diet (Table 7)): 44%
- reduction in the average number of tumors per rat ([3]; by the end of the 180-day study, 2 mmol/kg diet (Table 7)): 16%
- % of Control Gp., Day 90 ([3]; with MNU, 0.5 mmol/kg diet): 74%
- % of Control Gp., Day 180 ([3]; with MNU, 0.5 mmol/kg diet): 97%
- Avg No. Per Rat (palpable mammary tumors), Day 90 ([3]; with MNU, 0.5 mmol/kg diet): 1.7
- Avg No. Per Rat (palpable mammary tumors), Day 180 ([3]; with MNU, 0.5 mmol/kg diet): 6.2
- % of Control Gp., Day 90 ([3]; with MNU, 2 mmol/kg diet): 56%
- % of Control Gp., Day 180 ([3]; with MNU, 2 mmol/kg diet): 84%
- Avg No. Per Rat (palpable mammary tumors), Day 90 ([3]; with MNU, 2 mmol/kg diet): 1.3
- Avg No. Per Rat (palpable mammary tumors), Day 180 ([3]; with MNU, 2 mmol/kg diet): 5.4
- Avg No. Per Rat (palpable mammary tumors), Day 180 ([3]; without MNU, 0.5 mmol/kg diet): 0
- Avg No. Per Rat (palpable mammary tumors), Day 180 ([3]; without MNU, 2 mmol/kg diet): 0
- accumulation in mammary tissue [4]: accumulated in rat mammary tissue
- accumulation of retinyl palmitate in the liver [4]: did not cause; also recorded: some increase in retinyl palmitate in the liver
- recovery from the feed of rats [5]: recoverable from the feed of rats
- stability in refluxing ethanol [6]: intramolecular cyclization
- stability in the solid state and in solution ([6]; Shealy et al., 1996, 1997): slowly undergoes an intramolecular Diels-Alder reaction
- reduction of average number of tumors per rat ([7]; earlier 90-day study, 2 mmol/kg of diet, MNU, Shealy et al., 1997): 48%
- suppression of MNU-induced mammary cancer ([7]; rats, 1997): inhibited the development of MNU-induced mammary cancer; also recorded: more effective than retinyl acetate
- toxicity in mammary carcinogenesis study [8]: not toxireas
- toxic dose in the feed after 90 days [8]: > 2 mmole/kg of diet

SMILES: COc1ccc(COC/C=C(C)/C=C/C=C(C)/C=C/C2=C(C)CCCC2(C)C)cc1OC [Compound 3a, Retinyl 3,4-Dimethoxybenzyl Ether]
- Percent Inhibition of [3H] Retinol Binding (CRBP Assay) [9]: 62 ± 8%
- activity in ODC assay [10]: not active in the ODC assay
- inhibition of papilloma formation [11]: ineffective in inhibiting papilloma formation

SMILES: COc1ccc(OC)c(COC/C=C(C)/C=C/C=C(C)/C=C/C2=C(C)CCCC2(C)C)c1 [Compound 3b, Retinyl 2,5-Dimethoxybenzyl Ether]
- binding to CRBP, in words ([9]; 150-fold molar excess): good binder to CRBP
- Percent Inhibition of [3H] Retinol Binding (CRBP Assay) [9]: 59 ± 13%
- activity in ODC assay [10]: not active in the ODC assay
- inhibition of papilloma formation [11]: ineffective in inhibiting papilloma formation
- effectiveness compared with RTMBE ([12]; 90-day assays, MNU-induced mammary carcinogenesis): less effective than was RTMBE
- reductions in the number of tumors per rat ([12]; 90-day study, 1 and 2 mmol/kg of diet): 26-52%
- effectiveness in reducing the number of tumors per rat ([12]; 90 days, in feed): effective
- Tumors, % of Control Gp. [12, 19]: 77%
- Tumors, Avg. No. per Rat [12, 19]: 2.7
- Tumors, % of Control Gp. [12, 20]: 48%
- Tumors, Avg. No. per Rat [12, 20]: 1.7
- Tumors, % of Control Gp. [12, 21]: 74%
- Tumors, Avg. No. per Rat [12, 21]: 2.6
- stability in weakly acidic ethanol (formation of anhydroretinol, 4) [13]: 4 is isolated
- Kp at 24 h [14]: 38 ± 20

SMILES: COC/C=C(C)/C=C/C=C(C)/C=C/C1=C(C)CCCC1(C)C [RME, retinyl methyl ether]
- Toxic Dose [2, 18]: > 20 mg/kg day and < 40 mg/kg day
- toxic dose from body-weight data [2, 18]: < 40 mg/kg/day
- binding to CRBP [15]: bind to cellular retinol-binding protein (CRBP)
- inhibition of binding of tritiated retinol (RBP), relative to retinol [16]: 100%
- conversion (demethylation) to retinol or its analogue [17]: demethylated to retinol in rat liver; also recorded: converted, respectively, to retinol or its TMMP analogue; also recorded: demethylation of RME by microsomal oxidases to retinol
- accumulation of retinyl palmitate in the liver [4]: a toxic effect produced by efficacious amounts
- stability in refluxing ethanol [6]: only minor degradation
- suppression of 7,12-DMBA-induced mammary cancer ([7]; rats, Grubbs et al, 1977): suppress
- suppression of MNU-induced mammary cancer ([7]; rats, 1997): suppress
- toxicity in mammary carcinogenesis study [8]: RME was (at 2 mmol/kg of diet)
- toxic dose in the feed after 90 days [8]: > 1 mmole/kg of diet and < 2 mmole/kg of diet
